One test concerns the target CK1δ (Homo sapiens, UniProt P48730). Put plainly: CK1δ kinase assay (Kinase-Glo luminescence). Format: biochemical. The following applies: ATP 10 μM, CK1δ enzyme 2 nM, peptide substrate 42 μM, 25° C., 85 minutes; values marked * are geometric mean of 5-16 determinations; read-out: CKIδ IC50 (nM), geometric mean of 2-4 determinations. Here is the method: The CK1δ kinase assay was performed in a standard buffer containing ATP at 10 μM, CK1δ enzyme at 2 nM, and the peptide substrate PLSRTLpSVASLPGL at 42 μM. The reaction was incubated at 25° C. for 85 minutes. Enzyme inhibition was performed in the presence of either 1 μL of CK1δ inhibitor, or 4% DMSO. Detection of luminescent output on a PerkinElmer EnVision plate reader (PerkinElmer, Waltham, Mass.) was performed as described for the Kinase-Glo Assay (Promega).
In general terms: Kinase-Glo reads ATP consumption through a luciferase reaction.

In the next test the target is CK1ε wild type enzyme (Homo sapiens, UniProt P49674). Nature of the test: CK1ε kinase assay (Kinase-Glo luminescence). It counts as biochemical. The following applies: ATP 10 μM, CK1ε wild type enzyme 2.5 nM, peptide substrate 42 μM, 25° C., 70 minutes; values marked * are geometric mean of 5-16 determinations; read-out: CKIε IC50 (nM), geometric mean of 2-4 determinations. Here is the method: The CK1ε kinase assay was performed in a standard buffer containing ATP at 10 μM, CK1ε wild type enzyme at 2.5 nM, and 42 μM concentration of the peptide substrate PLSRTLpSVASLPGL (Flotow et al., 1990). The reaction was incubated at 25° C. for 70 minutes. Enzyme inhibition was measured in the presence of 1 μL of the CK1ε inhibitor, or 4% DMSO. Detection was carried out as described for the Kinase-Glo Assay (Promega). Luminescent output was measured on the PerkinElmer EnVision plate reader (PerkinElmer, Waltham, Mass.).

The structures appear in SMILES notation. Structures can show the parent of a compound that is named as a salt.

Sequence of CK1δ (P48730 whole entry): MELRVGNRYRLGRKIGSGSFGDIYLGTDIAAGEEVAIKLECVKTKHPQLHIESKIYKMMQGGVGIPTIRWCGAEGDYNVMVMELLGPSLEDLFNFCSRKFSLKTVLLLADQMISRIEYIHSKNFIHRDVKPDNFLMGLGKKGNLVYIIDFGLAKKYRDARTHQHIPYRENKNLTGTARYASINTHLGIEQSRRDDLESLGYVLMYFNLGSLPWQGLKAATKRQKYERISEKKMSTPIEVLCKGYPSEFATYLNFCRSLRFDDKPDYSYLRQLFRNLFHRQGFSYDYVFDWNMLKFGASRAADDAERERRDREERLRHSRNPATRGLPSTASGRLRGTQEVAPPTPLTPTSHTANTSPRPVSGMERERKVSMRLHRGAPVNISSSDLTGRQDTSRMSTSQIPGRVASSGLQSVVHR
Sequence of CK1ε wild type enzyme (P49674 whole entry): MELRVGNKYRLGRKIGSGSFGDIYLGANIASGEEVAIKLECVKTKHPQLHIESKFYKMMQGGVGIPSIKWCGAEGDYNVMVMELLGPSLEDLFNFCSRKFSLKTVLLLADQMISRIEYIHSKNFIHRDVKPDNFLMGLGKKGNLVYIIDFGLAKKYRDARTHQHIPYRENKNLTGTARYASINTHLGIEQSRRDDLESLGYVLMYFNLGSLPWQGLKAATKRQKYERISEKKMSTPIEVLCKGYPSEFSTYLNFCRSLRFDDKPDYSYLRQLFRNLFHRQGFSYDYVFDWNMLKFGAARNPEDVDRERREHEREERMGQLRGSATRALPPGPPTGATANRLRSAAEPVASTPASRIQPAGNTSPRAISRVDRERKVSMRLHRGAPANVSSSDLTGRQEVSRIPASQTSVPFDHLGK

Consider `Fc1ccc(-c2ncn(C3CCN(Cc4ccon4)CC3)c2-c2ccncn2)cc1` [Example 6, 4-{4-(4-Fluorophenyl)-1-[1-(isoxazol-3-ylmethyl)piperidin-4-yl]-1H-imidazol-5-yl}pyrimidine, hydrochloride salt], for which the IC50 worked out at 24 nM on CK1δ and 126 nM on CK1ε wild type enzyme.

In the case of `Nc1nccc(-c2c(-c3ccc(F)cc3)ncn2C2CCN(Cc3ccc(C(F)(F)F)nc3)CC2)n1` [Example 18, 4-[4-(4-fluorophenyl)-1-(1-{[6-(trifluoromethyl)pyridin-3-yl]methyl}piperidin-4-yl)-1H-imidazol-5-yl]pyrimidin-2-amine, trifluoroacetate salt], the IC50 at CK1δ came to 80.7 nM; on CK1ε wild type enzyme it was 394 nM.

Take `C[C@@H](c1ccon1)N1CCC(n2cnc(-c3ccc(F)cc3)c2-c2ccncn2)CC1` (single isomer, unassigned) [Example 10]: the results for the IC50 at CK1δ and on CK1ε wild type enzyme were 64.6 nM and 277 nM, respectively.

Consider `Nc1nccc(-c2c(-c3ccc(F)cc3)ncn2C2CCN(Cc3cncs3)CC2)n1` [Example 19, 4-{4-(4-fluorophenyl)-1-[1-(1,3-thiazol-5-ylmethyl)piperidin-4-yl]-1H-imidazol-5-yl}pyrimidin-2-amine, trifluoroacetate salt], for which the IC50 at CK1δ worked out at 26.8 nM; on CK1ε wild type enzyme, 99.9 nM.

For the molecule `Cc1cc(C)c(CN2CCC(n3cnc(-c4ccc(F)cc4)c3-c3ccnc(N)n3)C2)cn1` (centres unmarked) [Example 37, 4-[1-{1-[(4,6-dimethylpyridin-3-yl)methyl]pyrrolidin-3-yl}-4-(4-fluorophenyl)-1H-imidazol-5-yl]pyrimidin-2-amine], the IC50 came out at 46.6 nM on CK1δ and 124 nM on CK1ε wild type enzyme.

For `Fc1ccc(-c2ncn(C3CCN(Cc4ccon4)C3)c2-c2ccncn2)cc1` (centres unmarked) [Example 8, 4-{4-(4-Fluorophenyl)-1-[1-(isoxazol-3-ylmethyl)pyrrolidin-3-yl]-1H-imidazol-5-yl}pyrimidine], the IC50 on CK1δ came to 211 nM; on CK1ε wild type enzyme, 617 nM.

On to `COc1ccc(CN2CCC(n3cnc(-c4ccc(F)cc4)c3-c3ccnc(N)n3)CC2)cn1` [Example 22, 4-[4-(4-fluorophenyl)-1-{1-[(6-methoxypyridin-3-yl)methyl]piperidin-4-yl}-1H-imidazol-5-yl]pyrimidin-2-amine, trifluoroacetate salt], for which the IC50 amounted to 83.6 nM at CK1δ and 482 nM on CK1ε wild type enzyme.

Take `Nc1nccc(-c2c(-c3ccc(F)cc3)ncn2C2CCN(Cc3ccon3)C2)n1` (centres unmarked) [Example 7, 4-{4-(4-Fluorophenyl)-1-[1-(isoxazol-3-ylmethyl)pyrrolidin-3-yl]-1H-imidazol-5-yl}pyrimidin-2-amine]: the IC50 on CK1δ was 67.8 nM; on CK1ε wild type enzyme, 193 nM.

`Cc1nc(-c2ccc(F)cc2)c(-c2ccncn2)n1C1CCN(Cc2ccon2)CC1` [Example 14, 4-{4-(4-Fluorophenyl)-1-[1-(isoxazol-3-ylmethyl)piperidin-4-yl]-2-methyl-1H-imidazol-5-yl}pyrimidine]: the IC50 is 140 nM at CK1δ and 829 nM at CK1ε wild type enzyme.

As for `CNc1nccc(-c2c(-c3ccccc3)ncn2C2CCN(Cc3ncccn3)CC2)n1` [Example 12, N-Methyl-4-{4-phenyl-1-[1-(pyrimidin-2-ylmethyl)piperidin-4-yl]-1H-imidazol-5-yl}pyrimidin-2-amine], the IC50 was determined as 191 nM at CK1δ and 660 nM on CK1ε wild type enzyme.

For the molecule `Nc1nccc(-c2c(-c3ccc(F)cc3)ncn2C2CCN(Cc3ccc4nccnc4c3)C2)n1` (centres unmarked) [Example 35, 4-{4-(4-fluorophenyl)-1-[1-(quinoxalin-6-ylmethyl)pyrrolidin-3-yl]-1H-imidazol-5-yl}pyrimidin-2-amine], the IC50 turned out to be 67.8 nM at CK1δ and 170 nM on CK1ε wild type enzyme.

For the molecule `Cc1cccc(CN2CCC(n3cnc(-c4ccc(F)cc4)c3-c3ccnc(N)n3)C2)n1` (centres unmarked) [Example 30, 4-[4-(4-fluorophenyl)-1-{1-[(6-methylpyridin-2-yl)methyl]pyrrolidin-3-yl}-1H-imidazol-5-yl]pyrimidin-2-amine], the IC50 at CK1δ came out at 91.6 nM; on CK1ε wild type enzyme, 266 nM.

On to `Nc1nccc(-c2c(-c3ccc(F)cc3)ncn2C2CCN(Cc3ccnnc3)CC2)n1` [Example 23, 4-{4-(4-fluorophenyl)-1-[1-(pyridazin-4-ylmethyl)piperidin-4-yl]-1H-imidazol-5-yl}pyrimidin-2-amine, trifluoroacetate salt], for which the IC50 worked out at 8.51 nM at CK1δ and 34.8 nM at CK1ε wild type enzyme.

Consider `Nc1nccc(-c2c(-c3ccc(F)cc3)ncn2C2CN(Cc3ncccn3)C2)n1` [Example 1, 4-{4-(4-Fluorophenyl)-1-[1-(pyrimidin-2-ylmethyl)azetidin-3-yl]-1H-imidazol-5-yl}pyrimidin-2-amine], for which the IC50 came out at 163 nM at CK1δ and 536 nM on CK1ε wild type enzyme.

Consider `Cc1cc(CN2CCC(n3cnc(-c4ccc(F)cc4)c3-c3ccncn3)CC2)no1` [Example 29, 4-[4-(4-fluorophenyl)-1-{1-[(5-methylisoxazol-3-yl)methyl]piperidin-4-yl}-1H-imidazol-5-yl]pyrimidine], for which the IC50 stood at 38.8 nM at CK1δ and 268 nM on CK1ε wild type enzyme.

In the case of `Nc1nccc(-c2c(-c3ccc(F)cc3)ncn2C2CCN(Cc3ncccn3)CC2)n1` [Example 3, 4-{4-(4-Fluorophenyl)-1-[1-(pyrimidin-2-ylmethyl)piperidin-4-yl]-1H-imidazol-5-yl}pyrimidin-2-amine], the IC50 at CK1δ was 27.8 nM; at CK1ε wild type enzyme, 116 nM.

Broadly, the IC50 is the concentration that gives 50% inhibition.
